Key:
[1] = refractive index (Na D-line) (dimensionless); xn = mol fraction of the nth substance listed; conditions: 101 kPa, Liquid
[2] = xn = mol fraction of the nth substance listed; conditions: 101 kPa, Liquid

COc1ccccc1 [anisole] + CCCCO
Conditions	mass density, 298.15 K [kg/m3]	mass density, 303.15 K [kg/m3]	mass density, 308.15 K [kg/m3]	refractive index, 298.15 K	refractive index, 303.15 K	refractive index, 308.15 K	speed of sound, 298.15 K [m/s]	viscosity, 298.15 K [mPa·s]	viscosity, 303.15 K [mPa·s]	viscosity, 308.15 K [mPa·s]
[1], x1 = 0.1064	–	–	–	1.4108	1.4069	1.4031	–	–	–	–
[1], x1 = 0.1923	–	–	–	1.4221	1.4197	1.4173	–	–	–	–
[1], x1 = 0.2988	–	–	–	1.4354	1.4332	1.4307	–	–	–	–
[1], x1 = 0.3972	–	–	–	1.4473	1.4449	1.4421	–	–	–	–
[1], x1 = 0.493	–	–	–	1.4586	1.4563	1.4535	–	–	–	–
[1], x1 = 0.5968	–	–	–	1.4719	1.4679	1.4651	–	–	–	–
[1], x1 = 0.7834	–	–	–	1.4848	1.4822	1.4795	–	–	–	–
[1], x1 = 0.8332	–	–	–	1.4911	1.4888	1.4858	–	–	–	–
[1], x1 = 0.892	–	–	–	1.5027	1.5005	1.4966	–	–	–	–
[1], x1 = 1	–	–	–	1.5137	1.5113	1.5088	–	–	–	–
[2], x1 = 0.1064	824.95	820.92	816.89	–	–	–	1258	2.015	1.778	1.576
[2], x1 = 0.1923	841.43	837.28	833.12	–	–	–	1276	1.702	1.511	1.352
[2], x1 = 0.2988	861.78	857.49	853.21	–	–	–	1298	1.409	1.261	1.136
[2], x1 = 0.3972	880.06	875.69	871.31	–	–	–	1314	1.285	1.145	1.051
[2], x1 = 0.493	897.25	892.77	888.3	–	–	–	1334	1.129	1.041	0.939
[2], x1 = 0.5968	922.83	918.26	913.66	–	–	–	1347	1.063	0.968	0.886
[2], x1 = 0.7834	930.28	925.7	921.11	–	–	–	1364	0.985	0.907	0.844
[2], x1 = 0.8332	957.86	953.17	948.47	–	–	–	1376	0.968	0.893	0.824
[2], x1 = 0.892	969.05	964.35	959.64	–	–	–	1390	0.962	0.884	0.822
[2], x1 = 1	989.15	984.45	979.73	–	–	–	1412	0.988	0.913	0.854

CC(C)O [propan-2-ol] + COc1ccccc1
x2 = 0
Conditions	mass density, 298.15 K [kg/m3]	mass density, 303.15 K [kg/m3]	mass density, 308.15 K [kg/m3]	refractive index, 298.15 K	refractive index, 303.15 K	refractive index, 308.15 K	speed of sound, 298.15 K [m/s]	viscosity, 298.15 K [mPa·s]	viscosity, 303.15 K [mPa·s]	viscosity, 308.15 K [mPa·s]
[1]	–	–	–	1.3745	1.3721	1.3702	–	–	–	–
[2]	781.36	777.09	772.75	–	–	–	1141	2.042	1.755	1.521

CCCCCO [pentan-1-ol] + COc1ccccc1
x2 = 0
Conditions	mass density, 298.15 K [kg/m3]	mass density, 303.15 K [kg/m3]	mass density, 308.15 K [kg/m3]	refractive index, 298.15 K	refractive index, 303.15 K	refractive index, 308.15 K	speed of sound, 298.15 K [m/s]	viscosity, 298.15 K [mPa·s]	viscosity, 303.15 K [mPa·s]	viscosity, 308.15 K [mPa·s]
[1]	–	–	–	1.4073	1.405	1.4032	–	–	–	–
[2]	810.92	807.23	803.52	–	–	–	1286	3.403	2.959	2.581

COc1ccccc1 [anisole] + CCCO
Conditions	mass density, 298.15 K [kg/m3]	mass density, 303.15 K [kg/m3]	mass density, 308.15 K [kg/m3]	refractive index, 298.15 K	refractive index, 303.15 K	refractive index, 308.15 K	speed of sound, 298.15 K [m/s]	viscosity, 298.15 K [mPa·s]	viscosity, 303.15 K [mPa·s]	viscosity, 308.15 K [mPa·s]
[1], x1 = 0.1036	–	–	–	1.4013	1.3989	1.3966	–	–	–	–
[1], x1 = 0.2003	–	–	–	1.4176	1.4153	1.4129	–	–	–	–
[1], x1 = 0.3055	–	–	–	1.4284	1.4314	1.4287	–	–	–	–
[1], x1 = 0.4053	–	–	–	1.4459	1.4458	1.4426	–	–	–	–
[1], x1 = 0.5096	–	–	–	1.461	1.4578	1.4542	–	–	–	–
[1], x1 = 0.6015	–	–	–	1.4737	1.4704	1.4673	–	–	–	–
[1], x1 = 0.7071	–	–	–	1.4864	1.482	1.4793	–	–	–	–
[1], x1 = 0.8023	–	–	–	1.4955	1.493	1.4897	–	–	–	–
[1], x1 = 0.8939	–	–	–	1.5046	1.5014	1.499	–	–	–	–
[1], x1 = 1	–	–	–	1.5137	1.5113	1.5088	–	–	–	–
[2], x1 = 0.1036	816.88	812.68	808.48	–	–	–	1223	1.564	1.392	1.242
[2], x1 = 0.2003	835.8	831.49	827.18	–	–	–	1232	1.352	1.198	1.078
[2], x1 = 0.3055	856.97	852.54	848.11	–	–	–	1258	1.166	1.094	0.961
[2], x1 = 0.4053	876.55	872.04	867.53	–	–	–	1278	1.069	0.98	0.879
[2], x1 = 0.5096	897.74	893.14	888.55	–	–	–	1297	1.003	0.921	0.838
[2], x1 = 0.6015	915.39	910.74	906.1	–	–	–	1314	0.989	0.903	0.821
[2], x1 = 0.7071	934.31	929.62	924.94	–	–	–	1330	0.947	0.859	0.802
[2], x1 = 0.8023	952.23	947.51	942.78	–	–	–	1350	0.943	0.861	0.795
[2], x1 = 0.8939	970.23	965.5	960.74	–	–	–	1370	0.932	0.869	0.792
[2], x1 = 1	989.15	984.45	979.73	–	–	–	1412	0.988	0.913	0.854

CCO [ethanol] + COc1ccccc1
x2 = 0
Conditions	mass density, 298.15 K [kg/m3]	mass density, 303.15 K [kg/m3]	mass density, 308.15 K [kg/m3]	refractive index, 298.15 K	refractive index, 303.15 K	refractive index, 308.15 K	speed of sound, 298.15 K [m/s]	viscosity, 298.15 K [mPa·s]	viscosity, 303.15 K [mPa·s]	viscosity, 308.15 K [mPa·s]
[1]	–	–	–	1.3591	1.3572	1.355	–	–	–	–
[2]	785.91	781.6	777.26	–	–	–	1161	1.073	0.971	0.889

CCCO [propan-1-ol] + COc1ccccc1
x2 = 0
Conditions	mass density, 298.15 K [kg/m3]	mass density, 303.15 K [kg/m3]	mass density, 308.15 K [kg/m3]	refractive index, 298.15 K	refractive index, 303.15 K	refractive index, 308.15 K	speed of sound, 298.15 K [m/s]	viscosity, 298.15 K [mPa·s]	viscosity, 303.15 K [mPa·s]	viscosity, 308.15 K [mPa·s]
[1]	–	–	–	1.3826	1.3808	1.3782	–	–	–	–
[2]	799.96	795.93	791.86	–	–	–	1206	1.792	1.706	1.518

COc1ccccc1 [anisole] + CCCCCO
Conditions	mass density, 298.15 K [kg/m3]	mass density, 303.15 K [kg/m3]	mass density, 308.15 K [kg/m3]	refractive index, 298.15 K	refractive index, 303.15 K	refractive index, 308.15 K	speed of sound, 298.15 K [m/s]	viscosity, 298.15 K [mPa·s]	viscosity, 303.15 K [mPa·s]	viscosity, 308.15 K [mPa·s]
[1], x1 = 0.1013	–	–	–	1.4091	1.4066	1.404	–	–	–	–
[1], x1 = 0.2032	–	–	–	1.4166	1.4138	1.4112	–	–	–	–
[1], x1 = 0.3022	–	–	–	1.4237	1.4219	1.4201	–	–	–	–
[1], x1 = 0.3946	–	–	–	1.4333	1.4302	1.4272	–	–	–	–
[1], x1 = 0.4912	–	–	–	1.4429	1.4401	1.4379	–	–	–	–
[1], x1 = 0.5984	–	–	–	1.4561	1.4533	1.451	–	–	–	–
[1], x1 = 0.6976	–	–	–	1.4667	1.4642	1.4616	–	–	–	–
[1], x1 = 0.7965	–	–	–	1.4807	1.4778	1.4747	–	–	–	–
[1], x1 = 0.8974	–	–	–	1.4963	1.4934	1.491	–	–	–	–
[1], x1 = 1	–	–	–	1.5137	1.5113	1.5088	–	–	–	–
[2], x1 = 0.1013	828.63	824.77	820.91	–	–	–	1298	2.677	2.332	2.051
[2], x1 = 0.2032	846.67	842.67	838.66	–	–	–	1311	2.005	1.773	1.575
[2], x1 = 0.3022	864.26	860.11	855.96	–	–	–	1324	1.743	1.545	1.384
[2], x1 = 0.3946	880.67	876.42	872.17	–	–	–	1336	1.513	1.359	1.219
[2], x1 = 0.4912	897.83	893.47	889.11	–	–	–	1350	1.318	1.195	1.091
[2], x1 = 0.5984	916.91	912.45	907.98	–	–	–	1361	1.18	1.072	0.979
[2], x1 = 0.6976	934.59	930.04	925.49	–	–	–	1374	1.092	0.999	0.916
[2], x1 = 0.7965	952.41	947.78	943.15	–	–	–	1388	1.004	0.927	0.853
[2], x1 = 0.8974	970.59	965.9	961.2	–	–	–	1395	0.955	0.88	0.919
[2], x1 = 1	989.15	984.45	979.73	–	–	–	1412	0.988	0.913	0.854

COc1ccccc1 [anisole] + CC(C)CCO
x1 = 1
Conditions	mass density, 298.15 K [kg/m3]	mass density, 303.15 K [kg/m3]	mass density, 308.15 K [kg/m3]	refractive index, 298.15 K	refractive index, 303.15 K	refractive index, 308.15 K	speed of sound, 298.15 K [m/s]	viscosity, 298.15 K [mPa·s]	viscosity, 303.15 K [mPa·s]	viscosity, 308.15 K [mPa·s]
[1]	–	–	–	1.5137	1.5113	1.5088	–	–	–	–
[2]	989.15	984.45	979.73	–	–	–	1412	0.988	0.913	0.854

Source: the NIST ThermoML archive (doi:10.1016/j.jct.2006.03.018)
